In patent US7691874B2, “Neuroprotective properties of dextrorotatory morphinans” (priority 2004, dated 2010):
Marks after values point to notes of the source that are not given here.

How the values were obtained:
[1] = tested on: cocaine-treated mice; assay: Cocaine-induced conditioned place preference with CB1 modulation
Experimental: The control mice received an i.p. injection of saline just before entering the white or black compartment. Cocaine or MA dissolved in saline was administered immediately before the mice were placed in the white compartment. To test the effect of cocaine alone or MA alone or in combination with exemplified morphinans (DM, HM, AM, CM or DF), each morphinan was administered 2 hr before cocaine or saline injection.
On day 1, the mice were pre-exposed to the test apparatus for 5 min. The guillotine doors were raised and the mice were allowed to move freely between the two compartments. On day 2, the time each mouse spent in each compartment was recorded for 15 min. On days 3, 5, 7, 9, 11, and 13, the mice were injected with cocaine before being confined to the white compartment, the non-preferred side, for 20 min. On days 4, 6, 8, 10, and 12, the mice were injected with saline before being confined to the black compartment, the preferred side, for 20 min. On day 14, the guillotine doors were raised. The mice were initially placed in the tunnel and the time spent by the mice in the two compartments was recorded for 15 min. The scores were calculated from the differences in the time spent in the white compartment in the testing and pre-testing phases.

[2] = molecular target: CB1 receptor (Rattus norvegicus, UniProt P20272); assay type: biochemical
CB1 receptor, sequence (P20272 whole entry): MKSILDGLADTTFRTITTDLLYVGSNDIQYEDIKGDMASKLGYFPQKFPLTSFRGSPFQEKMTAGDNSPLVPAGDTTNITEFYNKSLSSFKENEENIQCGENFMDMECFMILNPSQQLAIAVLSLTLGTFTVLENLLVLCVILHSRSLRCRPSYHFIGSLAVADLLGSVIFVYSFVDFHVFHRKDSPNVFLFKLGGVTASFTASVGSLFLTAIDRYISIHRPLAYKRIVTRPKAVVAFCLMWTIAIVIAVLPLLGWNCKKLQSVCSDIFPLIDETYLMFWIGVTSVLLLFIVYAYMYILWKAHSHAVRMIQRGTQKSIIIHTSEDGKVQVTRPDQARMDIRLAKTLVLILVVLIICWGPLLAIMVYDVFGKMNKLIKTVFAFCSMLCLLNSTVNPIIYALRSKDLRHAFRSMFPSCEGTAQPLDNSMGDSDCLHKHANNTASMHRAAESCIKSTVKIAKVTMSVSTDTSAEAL

[3] = tested on: C57 BL/6 mice; assay: Conditioned place preference (psychological dependence) following repeated administration of morphinans or PCP; assay type: in vivo; conditions: 20 or 40 mg/kg i.p. (PCP 2.5 or 5 mg/kg); vs saline
Experimental: On day 14, the guillotine doors were raised. […] Data were analyzed between 0900 and 1700 hr.

[4] = tested on: MPTP-treated mice; assay: Hypokinesia (reduction in locomotor activity) induced by MPTP; assay type: in vivo; conditions: 12 or 24 mg/kg i.p. 30 min before MPTP (20 mg/kg/day x 7), last three days
[5] = tested on: MA-treated mice; assay: Striatal dopamine and metabolites in MA-treated mice; assay type: in vivo; conditions: for Concentration DA in the striatum: 3 days after final MA
From the text: Mice were sacrificed at 3 days after final MA injection.

[6] = tested on: NMDA receptor associated PCP sites; conditions: cited from earlier work
[7] = tested on: MPTP-treated mice; assay: MPTP-induced loss of nigral TH-IR with CB1 agonist/antagonist and HM; assay type: in vivo; conditions: given alone: AM-251 0.3, ACEA 2, HM 20 mg/kg i.p.; MPTP 20 mg/kg i.p./day x 7
Experimental: CB1 agonist or antagonist was administered 45 min before every MPTP, while HM was injected 30 min before every MPTP (20 mg/kg, i.p./day×7). Compounds were administered for 7 days post-final MPTP.

[8] = tested on: MA-treated mice; assay: MA model, HM versus L-dopa/carbidopa: hyperthermia; assay type: in vivo; conditions: MA 7.5 mg/kg i.p. x 4
Experimental: FIGS. 31A-31B show effect of drugs on the MA-induced hyperthermia. Mice received MA injections as 2 hrs' time interval under the ambient temperature of 22.0±0.5° C.
Experimental paradigm for MA with or without compounds is in FIG. 30. Treatment with MA (7.5 mg/kg, i.p.×four times as two hour time interval) produces hyperthermia (P<0.01).

[9] = tested on: MA-treated mice; assay: MA-induced loss of nigral TH-IR with CB1 agonist/antagonist and HM; conditions: given alone
Experimental: Compounds were administered 3 days before and after MA injection.

[10] = tested on: cocaine-treated mice; assay: Cocaine-induced Fos-related antigen-immunoreactivity (FRA-IR) in the striatum; conditions: cocaine 5 mg/kg; morphinan 20 mg/kg i.p.
[11] = molecular target: σ1 receptors (Homo sapiens, UniProt Q99720); conditions: cited from earlier work
σ1 receptors, sequence (Q99720 whole entry): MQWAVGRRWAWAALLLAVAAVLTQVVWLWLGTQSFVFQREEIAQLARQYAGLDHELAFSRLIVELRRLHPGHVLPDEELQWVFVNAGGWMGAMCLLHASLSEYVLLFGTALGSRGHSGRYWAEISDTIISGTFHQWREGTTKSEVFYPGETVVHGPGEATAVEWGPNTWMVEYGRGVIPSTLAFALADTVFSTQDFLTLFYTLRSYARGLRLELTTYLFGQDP

[12] = molecular target: cannabinoid CB1 site (Rattus norvegicus, UniProt P20272)
cannabinoid CB1 site, sequence (P20272 whole entry): as the sequence (P20272 whole entry) above

[13] = tested on: LPS-treated mice; assay: LPS model, HM versus L-dopa/carbidopa: locomotor activity; assay type: in vivo; conditions: 3 weeks after LPS
Experimental: Locomotor activity was examined for 60 min at 3 weeks after LPS treatment. LPS-induced significant reduction (P<0.01 vs. saline treatment) in locomotor activity was attenuated by L-dopa (P<0.05), carbidopa+L-dopa (P<0.05) or HM (P<0.01) (FIGS. 24 and 25).

[14] = tested on: MA-treated mice; assay: Methamphetamine (MA)-induced hyperthermia; assay type: in vivo; conditions: 24 mg/kg; MA 7.5 mg/kg i.p. x 4 at 2-h intervals
Experimental: Rectal temperature was recorded at 40 min after each MA treatment. […] Mice were sacrificed at 3 days after final MA injection.
FIGS. 10A-10B show effect of morphinans on the methamphetamine (MA)-induced hyperthermia. Mice received i.p. injections of MA (four injections of 7.5 mg/kg each) at 2-h intervals under the ambient temperature of 22.0±0.5° C. Temperatures were recorded at 40 min after each MA treatment (Arrow=MA injection).

[15] = tested on: MPTP-treated mice; assay: MPTP model, HM versus L-dopa/carbidopa: nigral TH-IR; assay type: in vivo; conditions: HM 24 mg/kg i.p., L-dopa 200 mg/kg p.o., carbidopa 20 mg/kg p.o.
Experimental: FIGS. 21A-21G show effects of carbidopa, L-dopa, carbidopa+L-dopa and HM on the nigral tyrosine hydroxylase-like immunoreactivity (TH-IR) of the mice treated with MPTP. […] Magnification=40×.
(§1) A prescription drug for treating Parkinsonian patients is L-dopa or carbidopa plus L-dopa. Thus, the neuroprotective effects of HM was compared with L-dopa, carbidopa, or carbidopa plus L-dopa. […] Locomotor activity was examined for 60 min after final treatment of MPTP. Mice were sacrificed at 24 h after final MPTP administration. HM (24 mg/kg, i.p.), L-dopa (200 mg/kg, p.o.) with or without carbidopa (20 mg/kg, p.o.) was administered for 2 weeks before first MPTP challenge.

[16] = tested on: MPTP-treated mice; assay: MPTP model, HM versus L-dopa/carbidopa: locomotor activity; assay type: in vivo; conditions: HM 24 mg/kg i.p., L-dopa 200 mg/kg p.o., carbidopa 20 mg/kg p.o., 2 weeks before MPTP
Experimental: FIGS. 20A-20B show effects of carbidopa, L-dopa, carbidopa+L-dopa and HM on the changes in locomotor activity (A) and locomotor pattern (B) induced by MPTP in mice.
as §1

[17] = tested on: LPS-treated mice; assay: Hypokinesia induced by intrastriatal LPS; conditions: 12 or 24 mg/kg, twice before bilateral intrastriatal LPS
Experimental: Male mice were anesthetized with chloral hydrate (200 mg/kg, i.p.) and positioned in a small-animal stereotaxic apparatus. […] LPS (2 μg in a volume of 2 μl of PBS) was injected into both sides of the striatum over a period of 2 min, and the injection needle was kept in place for 2 min after the injection. Control animals received striatal injection with PBS.
Ten min after the last treatment with each drug, locomotor activity was measured for 30 min. After measuring the locomotor activity (i.e. 40 min after the last drug injection), the ‘absolute turn angular’ was analyzed in a 3-min monitoring period using an automated video-tracking system (Noldus Information Technology, Wagenin, The Netherlands) to examine locomotor patterns. […] Eight test boxes (40×40×30 cm high) were operated simultaneously by an IBM computer. Animals were studied individually during locomotion in each test box, where they were adapted for 10 min before starting the experiment. […] The distance traveled in cm by the animals in horizontal locomotor activity was analyzed (13, 25, 27). Data were collected and analyzed between 0900 and 1700 hr.

[18] = tested on: MA-treated mice; assay: MA model, HM versus L-dopa/carbidopa: nigral TH-IR; conditions: mouse, in vivo
From the text: FIGS. 33A-33G show effects of carbidopa, L-dopa, carbidopa plus L-dopa, and HM on the nigral tyrosine hydroxylase-like immunoreactivity (TH-IR) of the mice treated with MA. […] Magnification=40×.

Question: For `Oc1ccc2c(c1)[C@@]13CCCC[C@H]1[C@@H](C2)NCC3` [HM, 3-hydroxymorphinan], which “CPP response of the compound itself” value ([1]; AM 251 0.3, HM 20, ACEA 2 mg/kg, no cocaine) is on record?
Answer: Neither saline-, AM 251 (0.3 mg/kg)-treated nor HM (20 mg/kg)-treated animals showed any CPP response

Question: And the “effect on cocaine-induced CPP” value ([1]; cocaine 10 mg/kg)?
Answer: significantly reduced

Question: And the “effect on CP 55940-induced stimulation in GTP γS binding” value [2]?
Answer: decreased

Question: And the “functional property at CB1 receptor” value [2]?
Answer: partial agonist of CB1 receptor, as well as a CB1 antagonist

Question: And the “inhibition of GTP γS binding” value ([2]; 100 nM)?
Answer: about 60%

Question: What about the “conditioned place preference (CPP)” value [3] of the same molecule?
Answer: almost no CPP effects

Question: What about the “effect on MPTP-induced reduction in locomotor activity” value [4] of the same molecule?
Answer: significantly prevented MPTP-induced reduction in locomotor activity

Question: What about the “effect on MA-induced reductions in striatal DA, DOPAC and HVA” value ([5]; 24 mg/kg pretreatment) of the same molecule?
Answer: significantly protected

Question: What about the “Concentration DOPAC in the striatum” value ([5]; morphinan 12 (mg/kg) + MA) of the same molecule?
Answer: 88 ± 10 ng/100 mg wet tissue

Question: What about the “Concentration HVA in the striatum” value ([5]; morphinan 12 (mg/kg) + MA) of the same molecule?
Answer: 82 ± 8 ng/100 mg wet tissue

Question: And the “Concentration DA in the striatum” value ([5]; morphinan 12 (mg/kg) + MA, mean ± S.E.M., 8 animals)?
Answer: 685 ± 64 ng/100 mg wet tissue

Question: What about the “Concentration DOPAC in the striatum” value ([5]; morphinan 24 (mg/kg) + MA) of the same molecule?
Answer: 103 ± 9^d^ ng/100 mg wet tissue

Question: And the “Concentration HVA in the striatum” value ([5]; morphinan 24 (mg/kg) + MA)?
Answer: 100 ± 11^c ng/100 mg wet tissue

Question: And the “Concentration DA in the striatum” value ([5]; morphinan 24 (mg/kg) + MA)?
Answer: 864 ± 82^d ng/100 mg wet tissue

Question: And the “affinity for NMDA receptor associated PCP sites” value [6]?
Answer: very low affinities

Question: And the “effect on MPTP-induced reduction of nigral TH-IR” value [7]?
Answer: Attenuates MPTP-induced Reduced Tyrosine Hydroxylase-like Immunoreactivity

Question: And the “effect on MA-induced hyperthermia” value [8]?
Answer: significantly attenenuated

Question: And the “effect on MA-induced reduction in nigral TH-IR” value [9]?
Answer: Prevents Methamphetamine (MA)-induced Reduction in Tyrosine Hydroxylase-like Immunoreactivity

Question: What about the “effect on cocaine-induced FRA-IR in the striatum” value [10] of the same molecule?
Answer: apparently attenuated

Question: What about the “affinity for σ1 receptors” value [11] of the same molecule?
Answer: high affinity ligands

Question: What about the Ki [12] of the same molecule?
Answer: 11.5 nM

Question: What about the “effect on LPS-induced reduction in locomotor activity” value [13] of the same molecule?
Answer: attenuated

Question: What about the “effect on MA-induced hyperthermia (rectal temperature)” value [14] of the same molecule?
Answer: most efficacious

Question: And the “effect on MPTP-induced nigral loss in TH-IR” value [15]?
Answer: significantly attenuated

Question: And the “effect on MPTP-induced decrease in locomotor activity” value [16]?
Answer: significantly increased

Question: And the “effect on LPS-induced decrease in locomotor activity” value [17]?
Answer: significantly prevented LPS-induced decrease in locomotor activity

Question: What about the “effect on MA-induced nigral loss in TH-IR” value [18] of the same molecule?
Answer: more pronounced than that of carbidopa+L-dopa
